The NIST ThermoML archive (doi:10.1016/j.jct.2004.06.009)

Assay: molar heat capacity at constant pressure
Settings: 101.33 kPa, Crystal

CCC12CC3CC(CC(C3)C1)C2 [1-ethyladamantane]
Settings	molar heat capacity at constant pressure [J/K/mol]
82.88 K	66.84
83.37 K	67.23
83.91 K	67.62
84.26 K	67.63
84.94 K	68.15
85.59 K	68.6
85.97 K	68.8
86.66 K	69.39
87 K	69.66
87.74 K	70.12
88.82 K	70.92
89.89 K	71.56
90.96 K	72.22
92.04 K	72.9
93.11 K	73.4
94.18 K	73.82
95.25 K	75.04
96.32 K	75.51
97.39 K	76.24
98.46 K	76.81
99.54 K	77.83
100.87 K	78.38
102.46 K	79.35
104.05 K	80.35
105.64 K	81.43
107.23 K	82.56
108.82 K	83.52
110.4 K	84.71
111.99 K	85.66
113.57 K	86.76
115.16 K	87.63
116.73 K	88.67
118.31 K	89.74
119.89 K	90.68
121.47 K	91.9
123.04 K	92.76
124.62 K	93.94
126.2 K	94.87
127.77 K	96.09
129.34 K	97.09
130.92 K	97.98
132.49 K	99.07
134.06 K	100.25
135.63 K	101.16
137.2 K	102.25
138.77 K	103.19
140.34 K	104.1
141.9 K	105.44
143.46 K	106.52
145.03 K	107.47
146.59 K	108.5
148.16 K	109.54
149.72 K	110.66
151.28 K	111.92
152.83 K	112.8
154.39 K	113.97
155.94 K	114.98
157.5 K	116.23
159.05 K	117.17
160.6 K	118.16
162.16 K	119.21
163.71 K	120.38
165.26 K	121.36
166.82 K	122.47
168.37 K	123.67
169.92 K	124.78
171.47 K	125.84
173.02 K	126.95
174.57 K	128.01
